Patent US20220305003A1, “METHODS OF TREATING CANCER WITH AN INHIBITOR OF ZNF827” (CHILDREN'S MEDICAL RESEARCH INSTITUTE, priority 2019, published 2022)

Each molecule was assayed on ATR-CHK1 pathway (assay: Western blot of ATR downstream effectors (p-CHK1 S345, p-RPA2 S33, pCHK2)). Settings: U-2 OS; agent alone (topotecan 2 μg/mL 24 hours, aphidicolin 1 μM 20 hours, or siRNA knockdown in unchallenged cells).
Type: cell-based
Experimental: Protein was extracted from 10^6 cells per sample by vigorous pipetting and incubation at room temperature for 30 minutes in 100 μL of EDTA-free 4× LDS buffer (106 mM Tris-Cl, 141 mM Tris-Base, 40% Glycerol, 2% LDS, 0.075% SERVA Blue G50) supplemented with 2.5% Benzonase® nuclease 25 U/μL (Novagen, Merck Millipore) and 2% beta-mercaptoethanol (Sigma). Following protein extraction, all samples were denatured at 90° C. for 15 minutes before resolving on NuPAGE® Novex® 4-12% Bis-Tris Mini Gels (Invitrogen) with 1×10^5 cells (10 μL) loaded per lane in NuPAGE® MES SDS running buffer (Invitrogen) at 200 V for 50 minutes. Gels were transferred onto a PVDF membrane (Immobilon-P, Millipore) in transfer buffer (190 mM glycine, 25 mM Tris and 10% methanol) at 100 V for 60 minutes. Membranes were stained with Ponceau-S for 30 minutes, de-stained then blocked for 1 hour at room temperature in 5% skim milk dissolved in PBS with 0.1% Tween-20 (PBST) or TBS with 0.1% Tween-20 (TBST) for phosphorylated proteins. Membranes were cut into appropriate segments based on the size markers, with each segment incubated with antibodies for proteins of interest diluted in 0.5% skim milk in PBST/TBST or 5% BSA overnight at 4° C. (Refer to Table 4 for the list of antibodies). Blots were then washed for 3×5 minutes in PBST/TBST followed by incubation for 1 hour at room temperature with appropriate secondary antibodies (See Table 5) diluted 1:5000 in 0.5% skim milk or 5% BSA in PBST/TBST. Blots were washed for 3×5 minutes in PBST/TBST before incubation with SuperSignal West Pico Chemiluminescent Substrate (ThermoFisher Scientific) for 5 minutes at room temperature. Blots were then exposed to a Luminescent Image Analyser (LAS-4000, Fujifilm).
To investigate the precise function of ZNF827 in the ATR pathway, the effect of ZNF827 depletion on the downstream effectors of ATR was examined. To activate ATR, U-2 OS cells were treated with DNA damage and replication stress inducing agents topotecan 2 μg/mL for 24 hours or aphidicolin 1 μM for 20 hours. […] Phosphorylation of CHK2 was not affected by ZNF827 depletion, further supporting that the role of ZNF827 in DNA damage and repair is independent of ATM (FIG. 6d).

Question: Which “phosphorylation of CHK1 S345” value does the source give for `C[C@@]1(CO)[C@H](O)CC[C@@]2(C)[C@H]1CC[C@H]1C[C@@H]3C[C@@]12CC[C@]3(O)CO` [aphidicolin] here?
Answer: became phosphorylated at S345

The molecules below were run on panel of 660 cell lines (assay: Drug sensitivity (Sanger GDSC IC50) versus ZNF827 gene expression). Settings: natural log of the IC50 from Sanger GDSC v17.3; low log2(TPM) <1 vs normal; Nemenyi test, adjusted p-value<0.05.
Type: cell-based
Experimental: ZNF827 gene expression for the 660 cell lines was plotted on a histogram and grouped by gene expression level, represented as log2(TPM), into “low” (<1), “normal” (>1, <5) and “high” (>5). […] The Nemenyi statistical test was used to test for significant differences between “low” and “normal” ZNF827 expression groups for drug sensitivity for each compound. P-values were then corrected for multiple testing using FDR correction. […] All statistical analysis was performed in R (version 3.6.0), using the “stats” (version 3.6.0) and “PMCMR” (version 4.3) libraries.

Question: With `O=c1[nH]c2ccccc2n1C1CCN(Cc2ccc(-c3nc4cc5[nH]cnc5cc4nc3-c3ccccc3)cc2)CC1` [AKT inhibitor VIII] as the molecule, how does the “drug sensitivity in cell lines with low ZNF827 compared to cell lines with normal ZNF827 expression” value read?
Answer: Increased sensitivity

Question: With `Cc1ccc(NC(=O)c2cccc(C(C)(C)C#N)c2)cc1Nc1ccc2ncn(C)c(=O)c2c1` [AZ628] as the molecule, how does the “drug sensitivity in cell lines with low ZNF827 compared to cell lines with normal ZNF827 expression” value read?
Answer: Increased sensitivity

Question: With `C=C(c1ccc(C(=O)O)cc1)c1cc2c(cc1C)C(C)(C)CCC2(C)C` [Bexarotene] as the molecule, how does the “drug sensitivity in cell lines with low ZNF827 compared to cell lines with normal ZNF827 expression” value read?
Answer: Increased sensitivity

Question: Which “drug sensitivity in cell lines with low ZNF827 compared to cell lines with normal ZNF827 expression” value does the source give for `O=C(NOCC1CC1)c1ccc(F)c(F)c1Nc1ccc(I)cc1Cl` [CI-1040] here?
Answer: Increased sensitivity

Question: `Cc1ccc(-c2c(C(=O)CF)n(CCCO)c3ncnc(N)c23)cc1` [FMK] was tested. Which “drug sensitivity in cell lines with low ZNF827 compared to cell lines with normal ZNF827 expression” value did it give?
Answer: Increased sensitivity

Question: `Nc1[nH]nc2nnc(-c3c(-c4ccccc4)nn4ccccc34)cc12` [FR-180204] was tested. Which “drug sensitivity in cell lines with low ZNF827 compared to cell lines with normal ZNF827 expression” value did it give?
Answer: Increased sensitivity

Question: `Cn1cc(/C=C2\C(=O)Nc3cccnc32)c2ccccc21` [GW441756] was tested. Which “drug sensitivity in cell lines with low ZNF827 compared to cell lines with normal ZNF827 expression” value did it give?
Answer: Increased sensitivity

Question: With `CCNC(=O)C[C@@H]1N=C(c2ccc(Cl)cc2)c2cc(OC)ccc2-n2c(C)nnc21` [I-BET-762] as the molecule, how does the “drug sensitivity in cell lines with low ZNF827 compared to cell lines with normal ZNF827 expression” value read?
Answer: Increased sensitivity

Question: Which “drug sensitivity in cell lines with low ZNF827 compared to cell lines with normal ZNF827 expression” value does the source give for `Cc1ccc(NC(=O)c2ccc(CN3CCN(C)CC3)cc2)cc1Nc1nccc(-c2cccnc2)n1` [Imatinib] here?
Answer: Increased sensitivity

Question: How did the “drug sensitivity in cell lines with low ZNF827 compared to cell lines with normal ZNF827 expression” value turn out when `O=C(N[C@@H](COc1ccc2[nH]c(=O)[nH]c2c1)c1ccccc1)c1cccn(Cc2ccc(F)c(F)c2)c1=O` [KIN001-244] was run?
Answer: Increased sensitivity

Question: For `COc1cc(C(=O)NC2CCN(C)CC2)ccc1Nc1ncc2c(n1)N(C1CCCC1)C(C)CC(=O)N2C` (centres unmarked) [NPK76-II-72-1], which “drug sensitivity in cell lines with low ZNF827 compared to cell lines with normal ZNF827 expression” value is on record?
Answer: Increased sensitivity

Question: Which “drug sensitivity in cell lines with low ZNF827 compared to cell lines with normal ZNF827 expression” value does the source give for `Cc1ccc(C(=O)Nc2cccc(C(F)(F)F)c2)cc1Nc1nc(-c2cccnc2)nc2c1cnn2C` [NVP-BHG712] here?
Answer: Increased sensitivity

Question: For `Cc1cn(-c2cc(NC(=O)c3ccc(C)c(Nc4nccc(-c5cccnc5)n4)c3)cc(C(F)(F)F)c2)cn1` [Nilotinib], which “drug sensitivity in cell lines with low ZNF827 compared to cell lines with normal ZNF827 expression” value is on record?
Answer: Increased sensitivity

Question: For `O=C(Nc1ccc(OC(F)(F)F)cc1)c1sccc1NCc1ccnc2ccccc12` [OSI-930], which “drug sensitivity in cell lines with low ZNF827 compared to cell lines with normal ZNF827 expression” value is on record?
Answer: Increased sensitivity

Question: Which “drug sensitivity in cell lines with low ZNF827 compared to cell lines with normal ZNF827 expression” value does the source give for `O=C(NOC[C@H](O)CO)c1ccc(F)c(F)c1Nc1ccc(I)cc1F` [PD0325901] here?
Answer: Increased sensitivity

Question: Which “drug sensitivity in cell lines with low ZNF827 compared to cell lines with normal ZNF827 expression” value does the source give for `[H]/N=C(/N)N/C(=N/[H])NCCc1ccccc1` [Phenformin] here?
Answer: Increased sensitivity

Question: Which “drug sensitivity in cell lines with low ZNF827 compared to cell lines with normal ZNF827 expression” value does the source give for `CC1(C)CC(=O)c2c(C(F)(F)F)nn(-c3ccc(C(N)=O)c(N[C@H]4CC[C@H](O)CC4)c3)c2C1` [SNX-2112] here?
Answer: Increased sensitivity

Question: How did the “drug sensitivity in cell lines with low ZNF827 compared to cell lines with normal ZNF827 expression” value turn out when `CCN(CC)CCNC(=O)c1c(C)[nH]c(/C=C2\C(=O)Nc3ccc(F)cc32)c1C.O=C(O)C[C@H](O)C(=O)O` [Sunitib] was run?
Answer: Increased sensitivity

Question: Which “drug sensitivity in cell lines with low ZNF827 compared to cell lines with normal ZNF827 expression” value does the source give for `O=S(=O)(c1ccccc1)N(CC(F)(F)F)c1ccc(C(O)(C(F)(F)F)C(F)(F)F)cc1` [T0901317] here?
Answer: Increased sensitivity

Question: `CCc1nc(-c2cccc(C)c2)c(-c2ccnc(NC(=O)c3ccccc3)c2)s1` [TAK-715] was tested. Which “drug sensitivity in cell lines with low ZNF827 compared to cell lines with normal ZNF827 expression” value did it give?
Answer: Increased sensitivity

Question: How did the “drug sensitivity in cell lines with low ZNF827 compared to cell lines with normal ZNF827 expression” value turn out when `CN(C)C/C=C/C(=O)Nc1ccc(C(=O)Nc2cccc(Nc3ncc(Cl)c(-c4c[nH]c5ccccc45)n3)c2)cc1` [THZ-2-102-1] was run?
Answer: Increased sensitivity

Question: For `CC/C(=C(\c1ccccc1)c1ccc(OCCN(C)C)cc1)c1ccccc1` [Tamoxifen], which “drug sensitivity in cell lines with low ZNF827 compared to cell lines with normal ZNF827 expression” value is on record?
Answer: Increased sensitivity

Question: Which “drug sensitivity in cell lines with low ZNF827 compared to cell lines with normal ZNF827 expression” value does the source give for `CC1=C(/C=C/C(C)=C/C=C/C(C)=C/C(=O)O)C(C)(C)CCC1` [Tretinoin] here?
Answer: Increased sensitivity

Question: `CCCC(=O)OCc1ccc(OC(=O)/C=C(C)/C=C/C=C(C)/C=C/C2=C(C)CCCC2(C)C)cc1` [VNLG-124] was tested. Which “drug sensitivity in cell lines with low ZNF827 compared to cell lines with normal ZNF827 expression” value did it give?
Answer: Increased sensitivity

Question: For `NC(=O)c1ccc(N(C(N)=O)c2c(F)cccc2F)nc1-c1ccc(F)cc1F` [VX-702], which “drug sensitivity in cell lines with low ZNF827 compared to cell lines with normal ZNF827 expression” value is on record?
Answer: Increased sensitivity

Question: For `O=C(CCCCCCC(=O)Nc1ccccc1)NO` [Vorinostat], which “drug sensitivity in cell lines with low ZNF827 compared to cell lines with normal ZNF827 expression” value is on record?
Answer: Increased sensitivity

Question: How did the “drug sensitivity in cell lines with low ZNF827 compared to cell lines with normal ZNF827 expression” value turn out when KIN001-236 was run?
Answer: Increased sensitivity

Question: Which “drug sensitivity in cell lines with low ZNF827 compared to cell lines with normal ZNF827 expression” value does the source give for KIN001-260 here?
Answer: Increased sensitivity

Question: Which “drug sensitivity in cell lines with low ZNF827 compared to cell lines with normal ZNF827 expression” value does the source give for THZ-2-49 here?
Answer: Increased sensitivity

Question: How did the “drug sensitivity in cell lines with low ZNF827 compared to cell lines with normal ZNF827 expression” value turn out when TL-1-85 was run?
Answer: Increased sensitivity

Question: How did the “drug sensitivity in cell lines with low ZNF827 compared to cell lines with normal ZNF827 expression” value turn out when TL-2-105 was run?
Answer: Increased sensitivity
